Laboratory results: patent publication US10335365B2, “Bladder cancer specific ligand peptides” (The Regents of the University of California, priority 2009, dated 2019)
“Also recorded” adds a separate entry of the source. Positions of bridges follow the written chain, without caps; N, C: chain ends. Non-standard residues stand in square brackets, D forms with d. No end group written: not given here.

Key:
whole blood cells = assay: Whole cell bead binding assay, whole blood cells; design: species or system human; details: peptide on beads
[1] = test system: 12 cell lines with different origins; assay: Whole cell bead binding assay, 12 cell lines of different origins; design: species or system human
[2] = test system: cells isolated from urine specimens of patients actively treated with BCG intravesical therapy; assay type: binding, human; details: 4 consecutive patients with no evidence of bladder cancer
5637 TCC cancer cells = assay: Bead binding to 5637 cells in urine at pH 6.0; design: species or system human; details: urine at pH 6.0, 4 hours, 37° C.
Protocol: The acidic environment in urine may change the 3-D structure of ligands and affect ligand binding. Here it was determined if the cancer-specific beads could bind to 5637 TCC cancer cells in urine. Cells were incubated with beads in urine at pH 6.0 for 4 hours at 37° C. 4-hour incubation was used to mimic the in vivo urine retention in patients and to permit conformational changes and protease digestion.

[3] = molecular target: T1, K562 cells transfected with a503 integrin (Homo sapiens, UniProt P05106+P06756); assay: Bead binding to K562 cells transfected with integrin; details: OBOC beads bearing PLZ4
T1 construct: expressed in transfected cells; host or cells: K562
Protocol: Here, OBOC beads bearing PLZ4 peptides on the surface were incubated with K562 cells transfected with various integrins. K562 cells express endogenous a501 integrin. […] Several other ligands obtained from the initial screening also contain the DGR motif. […] To identify which amino acids are involved in determining cell binding and binding specificity, “alanine walk” was performed combined with the rainbow bead coding methods (Luo, et al., J Comb Chem, (2008) 10: 599-604). The amino acids aspartic acid (D, the X2 position), arginine (R, X4) and phenylalanine (F, X7) are important for cell binding. Replacement of any of these amino acids with alanine completely abolished the binding of the peptides to 5637 cells (FIG. 6B). […] Methionine at the X5 position could be replaced to many other amino acids without compromising the binding affinity. Based on this analysis, the three amino acids (D, G and R) at the N-terminus together with the two amino acids (G and F) at the C-terminus determine the binding specificity. Therefore, the binding pocket may be in the clover shape: one for the N-terminal three amino acids, one for the C-terminal two amino acids and a middle pocket. So w the depth of the middle binding pocket by adding different numbers of glycine residue to the X5 position. […]

[4] = test system: Human bladder cancer cell line 5637; assay: Whole cell binding assay of Example 2, 5637 positive control; details: PLZ4 beads, 10^6 cells/ml
Protocol: (§1) This experiment was repeated 3 times for cell lines. […] 5637 human bladder cancer cell line; b. […] The average diameter of the beads is 90 μm. […] This experiment was repeated for 3 times. (200×)
(§2) To determine the binding of PLZ4 to canine TCC cell lines, whole cell binding assay was performed. PLZ4 was synthesized on TentaGel S NH2 resin beads (Rapp Polymere Gmbh, Germany) (Pegram, et al., J Clin Oncol (1998) 16:2659-2671), and incubated with single suspensions of five different canine carcinoma cell lines including K9TCC-PU, K9TCC-PU-AxA, K9TCC-PU-In, K9TCC-PU-AxC, and K9TCC-PU-Nk (kindly provided by Deborah Knapp at Purdue University, West Lafayette, Ind., USA) at 10^6 cells/ml. The negative control was normal urothelial cells obtained from dogs that were euthanized due to non-bladder-related disorders. Human bladder cancer cell line, 5637 were served as the positive control. If PLZ4 bound to cells in suspension, then the bead surface was covered with cells. Over 95% of the bead surface was covered with 5637 and K9TCC cells (FIG. 7A-a and b, respectively).

K9TCC cells = assay: Whole cell binding assay of Example 2, canine TCC cells; details: PLZ4 beads, 10^6 cells/ml
Protocol: as §1, §2

[5] = test system: normal canine bladder urothelial cells; assay: Whole cell binding assay of Example 2, normal canine urothelial cells; details: PLZ4 beads
Protocol: as §1, §2

[6] = test system: K9TCC, K9TCC-PU-In and K9TCC-PU-Nk cells; assay: WST-8 cell proliferation assay; assay type: cell-based, canine; details: 48 hours, various concentrations, compared with PBS control
Protocol: FIG. 8A-B. Binding affinity and biological effects of PLZ4 against canine TCC cell lines. A. Binding affinity of PLZ4 against K9TCC-PU and K9TCC-PU-In. Twenty thousands of K9TCC-PU and K9TCC-PU-In were seeded in 96 well plates. After culture for 24 hours, cells were fixed and incubated with different concentrations of PLZ4-biotin for 1.5 hours following avidin-HRP for another 1 hour. Cells treated with avidin-HRP only were served as background control. The color was developed using TMB substrate and read by ELISA readers. The experiment was performed in triplicates and repeated for 3 times. The mean value of the 3 experiments were shown. B. Biological effects of PLZ4 on canine TCC cell lines. Ten thousand K9TCC-PU-In and K9TCC-PU cells were seeded in the 96 well plates and treated with increasing concentrations of PLZ4 or PBS for 2 days. The cell proliferation assay was assessed by WST-8 assay per manufacturer's protocol. Cells treated with PBS were used as 100% control. Each group was performed in triplicate, repeated for 3 times. Mean values at each concentration are presented.
Ligand binding on the cell surface molecules may initiate cell signaling and exert biological effects on cells. The effect of PLZ4 on cell viability and proliferation was determined, as it may have potential clinical applications. […]

[7] = test system: cancer cells from canine bladder TCC clinical specimen; assay: Binding to canine bladder TCC clinical specimen cells
[8] = test system: bladder lymphoid hyperplasia specimen; assay: Binding to canine bladder lymphoid hyperplasia specimen; details: data not shown
[9] = test system: vascular endothelial cells; assay: Binding to vascular endothelial cells

T1 sequence (P06756 31-889 limits assumed): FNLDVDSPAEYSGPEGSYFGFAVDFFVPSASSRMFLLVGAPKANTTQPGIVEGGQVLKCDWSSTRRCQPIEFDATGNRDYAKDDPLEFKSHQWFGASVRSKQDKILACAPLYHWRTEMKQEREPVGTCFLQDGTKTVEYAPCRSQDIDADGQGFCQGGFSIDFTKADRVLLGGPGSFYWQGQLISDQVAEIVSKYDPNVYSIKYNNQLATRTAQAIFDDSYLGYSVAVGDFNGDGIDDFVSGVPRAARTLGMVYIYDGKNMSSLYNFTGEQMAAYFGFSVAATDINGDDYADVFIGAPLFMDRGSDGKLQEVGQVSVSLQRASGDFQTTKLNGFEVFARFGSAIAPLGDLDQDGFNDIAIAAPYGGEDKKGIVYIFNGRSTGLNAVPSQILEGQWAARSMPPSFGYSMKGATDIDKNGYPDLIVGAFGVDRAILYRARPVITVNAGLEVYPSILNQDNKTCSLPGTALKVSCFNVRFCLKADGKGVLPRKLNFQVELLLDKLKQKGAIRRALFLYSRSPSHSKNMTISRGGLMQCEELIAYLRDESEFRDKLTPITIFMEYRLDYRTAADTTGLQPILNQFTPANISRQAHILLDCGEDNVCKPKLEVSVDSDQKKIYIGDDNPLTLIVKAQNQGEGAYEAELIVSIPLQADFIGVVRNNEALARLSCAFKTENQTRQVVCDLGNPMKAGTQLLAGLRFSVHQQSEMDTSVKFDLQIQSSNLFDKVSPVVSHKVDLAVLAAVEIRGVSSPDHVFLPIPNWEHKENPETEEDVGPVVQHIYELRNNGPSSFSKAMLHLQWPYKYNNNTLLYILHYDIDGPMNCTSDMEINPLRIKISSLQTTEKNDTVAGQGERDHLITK
T1 sequence (P06756 891-1048 partner limits assumed): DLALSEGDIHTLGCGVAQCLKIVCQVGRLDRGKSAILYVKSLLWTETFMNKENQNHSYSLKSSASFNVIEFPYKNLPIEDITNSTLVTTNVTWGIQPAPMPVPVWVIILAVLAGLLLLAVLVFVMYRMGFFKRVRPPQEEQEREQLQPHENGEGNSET
T1 sequence (P05106 27-788): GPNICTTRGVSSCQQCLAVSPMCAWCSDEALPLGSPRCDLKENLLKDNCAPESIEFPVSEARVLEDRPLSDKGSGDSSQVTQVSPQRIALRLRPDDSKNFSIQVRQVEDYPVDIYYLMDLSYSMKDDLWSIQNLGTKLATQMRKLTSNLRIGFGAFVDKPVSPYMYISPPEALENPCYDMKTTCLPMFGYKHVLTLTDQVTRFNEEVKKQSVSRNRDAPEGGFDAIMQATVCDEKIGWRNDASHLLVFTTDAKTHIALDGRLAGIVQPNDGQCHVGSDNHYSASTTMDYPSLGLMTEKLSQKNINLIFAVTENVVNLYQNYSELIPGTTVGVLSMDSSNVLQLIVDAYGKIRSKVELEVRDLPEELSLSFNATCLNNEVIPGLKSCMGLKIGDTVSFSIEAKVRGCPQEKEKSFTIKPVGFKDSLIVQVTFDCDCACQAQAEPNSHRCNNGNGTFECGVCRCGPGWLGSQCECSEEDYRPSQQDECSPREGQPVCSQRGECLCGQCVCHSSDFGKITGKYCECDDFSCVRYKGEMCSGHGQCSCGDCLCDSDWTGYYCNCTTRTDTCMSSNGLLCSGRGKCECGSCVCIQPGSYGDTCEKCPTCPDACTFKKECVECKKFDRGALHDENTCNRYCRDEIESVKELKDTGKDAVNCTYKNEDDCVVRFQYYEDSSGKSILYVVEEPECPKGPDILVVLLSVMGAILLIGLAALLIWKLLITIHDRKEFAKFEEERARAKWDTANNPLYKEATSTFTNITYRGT

With “cQDGRMGFc ([dC]QDGRMGF[dC]; disulfide 1-9 (inferred)) [PLZ4, bladder cancer-specific ligand peptide]” the “binding to whole blood cells” value (whole blood cells) was “did not bind”, the “binding to 12 cell lines with different origins” value [1] was “did not bind to 10 out of 12 cell lines; also recorded: only bought to one of 12” and the “binding to cells from urine of patients actively treated with BCG” value [2] was “did not bind”. The “binding to 5637 cells in urine” value (5637 TCC cancer cells) was “still able to bind cells in urine”, the “binding to K562 cells transfected with a503 integrin” value [3] was “bound” and the “bead surface covered with cells” value [4] was “Over 95%”. The “bead surface covered with cells” value (K9TCC cells) was “Over 95%”, the “binding to normal canine bladder urothelial cells” value [5] was “no cell binding” and the cell proliferation/viability [6] was “no significant changes in cell proliferation/viability”. The “binding to primary canine bladder cancer cells from a clinical specimen” value [7] was “could bind to primary canine bladder cancer cells; also recorded: could bind to cancer cells from one canine bladder TCC clinical specimen”, the “binding to a bladder lymphoid hyperplasia specimen” value [8] was “not to a bladder lymphoid hyperplasia specimen” and the “binding to vascular endothelial cells” value [9] was “did not bind”.
